Literature values in US8431806B2, “Liposomal formulations of anthracycline agents and cytidine analogs” (Celator Pharmaceuticals, Inc., priority 2004, dated 2013).

Settings: in vivo

half-life for elimination: 19 h | oral absorption (po): low
SMILES: COc1cccc2c1C(=O)c1c(O)c3c(c(O)c1C2=O)C[C@@](O)(C(C)=O)C[C@@H]3O[C@H]1C[C@H](N)[C@H](O)[C@H](C)O1 [Daunorubicin]
